These results are taken from PMC10653840, “A new class of protein sensor links spirochete pleomorphism, persistence, and chemotaxis” (mBio, 2023).

Test [1] concerns the target T1, CheWS (Treponema denticola, UniProt F7IUZ1). Description: isothermal titration calorimetry with purified protein. The class given is binding. Further details: gene cheW-1; full-length CheWS (CheW-CheRlike), poly-His tag.
Target sequence in this assay (F7IUZ1 entry or part of it): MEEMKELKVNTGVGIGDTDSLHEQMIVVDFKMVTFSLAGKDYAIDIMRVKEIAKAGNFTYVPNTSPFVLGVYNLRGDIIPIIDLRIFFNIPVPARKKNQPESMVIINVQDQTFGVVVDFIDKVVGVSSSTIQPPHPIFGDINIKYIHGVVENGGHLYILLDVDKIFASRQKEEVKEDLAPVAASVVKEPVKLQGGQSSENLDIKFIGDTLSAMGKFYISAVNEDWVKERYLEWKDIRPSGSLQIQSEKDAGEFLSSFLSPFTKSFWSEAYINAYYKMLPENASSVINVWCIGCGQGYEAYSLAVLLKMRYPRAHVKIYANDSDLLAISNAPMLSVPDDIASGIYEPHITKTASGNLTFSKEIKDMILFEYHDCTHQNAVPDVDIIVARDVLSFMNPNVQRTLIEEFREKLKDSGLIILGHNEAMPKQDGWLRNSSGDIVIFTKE
In test [2] the target is T1, CheWS. Description: isothermal titration calorimetry with purified domain. In kind it is binding. Further details: gene cheW-1; isolated CheRlike domain (residues 203–444).
Target sequence in this assay (F7IUZ1 entry or part of it): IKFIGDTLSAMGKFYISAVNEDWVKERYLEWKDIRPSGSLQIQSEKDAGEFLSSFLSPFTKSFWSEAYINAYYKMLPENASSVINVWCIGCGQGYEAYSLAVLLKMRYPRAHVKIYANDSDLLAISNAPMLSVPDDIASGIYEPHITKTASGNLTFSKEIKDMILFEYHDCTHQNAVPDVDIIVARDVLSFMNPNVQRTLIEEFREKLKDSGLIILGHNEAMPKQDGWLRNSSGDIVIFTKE

On CheWS [1], `Nc1ncnc2c1ncn2[C@@H]1O[C@H](CSCC[C@H](N)C(=O)O)[C@@H](O)[C@H]1O` [SAH, S-adenosylhomocysteine] showed a Kd of roughly 17 µM.

`C[S+](CC[C@H](N)C(=O)[O-])C[C@H]1O[C@@H](n2cnc3c(N)ncnc32)[C@H](O)[C@@H]1O` (some centres unmarked) [SAM, S-adenosylmethionine]: on CheWS [2], the Kd is roughly 18 µM.
